Source: ChEMBL document CHEMBL5154647, “Discovery of seneciobipyrrolidine derivatives for the amelioration of glucose homeostasis disorders through 4E-BP1/Akt/AMPK signaling activation” (Eur J Med Chem, 2022)

Legend:
L6 [1] = assay: Induction of glucose uptake in rat L6 myoblasts at 20 uM measured after 2 hrs by liquid scintillation counter; format: functional
L6 [2] = assay: Induction of glucose uptake in rat L6 myoblasts assessed as 2-DG concentration at 25 uM preincubated for 3 hrs and in presence of 2-deoxyglucose measured after 1 hrs by DNTB reagent based colorimetric assay; format: functional; settings: time 4 hrs
[3] = Half life in Sprague-Dawley rat at 5 mg/kg, iv measured upto 24 hrs by LC/MS/MS analysis; format: ADME, organism-based; settings: in vivo
[4] = Cmax in Sprague-Dawley rat at 5 mg/kg, iv measured upto 24 hrs by LC/MS/MS analysis; format: ADME, organism-based; design: dose 5 mg/kg, time < 24 hrs, route iv; settings: in vivo
[5] = AUC (0 to t) in Sprague-Dawley rat at 5 mg/kg, iv measured upto 24 hrs by LC/MS/MS analysis; format: ADME, organism-based; design: dose 5 mg/kg, time < 24 hrs, route iv; settings: in vivo
[6] = Tmax in Sprague-Dawley rat at 20 mg/kg, po measured upto 10 hrs by LC/MS/MS analysis; format: ADME, organism-based; settings: in vivo
[7] = Half life in Sprague-Dawley rat at 20 mg/kg, po measured upto 10 hrs by LC/MS/MS analysis; format: ADME, organism-based; settings: in vivo
[8] = Cmax in Sprague-Dawley rat at 20 mg/kg, po measured upto 10 hrs by LC/MS/MS analysis; format: ADME, organism-based; design: time < 10 hrs, dose 20 mg/kg, route po; settings: in vivo
[9] = AUC (0 to t) in Sprague-Dawley rat at 20 mg/kg, po measured upto 10 hrs by LC/MS/MS analysis; format: ADME, organism-based; design: time < 10 hrs, dose 20 mg/kg, route po; settings: in vivo
[10] = Oral bioavailability in Sprague-Dawley rat at 20 mg/kg measured upto 10 hrs by LC/MS/MS analysis; format: ADME, organism-based; settings: in vivo

## COc1ccc2c(c1)[C@H]1[C@H](CCN1C(=O)c1ccc(C#N)cc1)[C@H]1CCCN21 (racemic)
L6 [1]
  Activity: 71.4%
L6 [2]
  Activity: 5.5 pmol/µL

## COc1ccc2c(c1)[C@H]1[C@H](CCN1C(=O)c1ccc(O)cc1)[C@H]1CCCN21 (racemic)
L6 [1]
  Activity: 86.7%

## COc1ccc2c(c1)[C@H]1[C@H](CCN1CCc1ccccc1)[C@H]1CCCN21 (racemic)
L6 [1]
  Activity: 55.9%
L6 [2]
  Activity: 23.4 pmol/µL

## COc1ccc2c(c1)[C@H]1[C@H](CCN1Cc1ccc3c(ccn3C)c1)[C@H]1CCCN21 (racemic)
L6 [1]
  Activity: 68.7%
L6 [2]
  Activity: 23.4 pmol/µL
[3]
  half-life: 7.6 h
[4]
  Cmax: 981 ng/mL
[5]
  AUC(0-t) at 24 h: 1480 ng·h/mL
[6]
  Tmax: 0.4 h
[7]
  half-life: 11.9 h
[8]
  Cmax: 307 ng/mL
[9]
  AUC(0-t) at 10 h: 561 ng·h/mL
[10]
  bioavailability: 9.5%

## Cc1ccc(N2CC[C@@H]3[C@@H]4CCCN4c4ccc(C)cc4[C@@H]32)cc1 (racemic)
L6 [1]
  Activity: 63.5%

## COc1ccc(CN2CC[C@@H]3[C@H]4CCCN4c4ccc(OC)cc4[C@@H]32)cc1 (racemic)
L6 [1]
  Activity: 15%

## COc1ccc(N2CC[C@@H]3[C@@H]4CCCN4c4cc(O)c(OC)cc4[C@@H]32)cc1O (racemic)
L6 [1]
  Activity: 70.6%

## COc1ccc2c(c1)[C@H]1[C@H](CCN1C(=O)Cc1ccc(C)cc1)[C@H]1CCCN21 (racemic)
L6 [1]
  Activity: 101.2%

## Cc1ccc(N2CC[C@@H]3[C@H]4CCCN4c4ccc(C)cc4[C@@H]32)cc1 (racemic)
L6 [1]
  Activity: 130.9%
L6 [2]
  Activity: 13.1 pmol/µL

## Cc1ccc(CN2CC[C@@H]3[C@H]4CCCN4c4ccccc4[C@@H]32)cc1 (racemic)
L6 [1]
  Activity: 155.4%

## Cc1cccc(N2CC[C@@H]3[C@H]4CCCN4c4cc(C)ccc4[C@@H]32)c1 (racemic)
L6 [1]
  Activity: 76.4%

## COc1ccccc1N1CC[C@@H]2[C@H]3CCCN3c3c(OC)cccc3[C@@H]21 (racemic)
L6 [1]
  Activity: 109.5%

## COc1ccc(N2CC[C@@H]3[C@H]4CCCN4c4ccc(OC)cc4[C@@H]32)cc1 (racemic)
L6 [1]
  Activity: 142.6%

## Cc1ccc(CN2CC[C@@H]3[C@H]4CCCN4c4ccc(C)cc4[C@@H]32)cc1 (racemic)
L6 [1]
  Activity: 149.2%
L6 [2]
  Activity: 59.6 pmol/µL
